The supplement of paper PMC11061612

Columns and labels:
Assay in all cases: Bliss excess, mean over the matrix (fraction); higher = more synergy
NCI-H2461 (Mesothelioma) = tested on: NCI-H2461 (Mesothelioma)
Outline: (§1)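 After 24 hours at 37°C and 5% CO2 in 1536-well plates, cells in DMEM/F12 or RPMI plus 10% FBS received two-drug dose matrices for 72 hours. Viability came from CellTiter-Glo 2.0 luminescence and was scaled as inhibition, anchored at 0 by vehicle wells and at 1 by blank wells. Combination Emax is taken as the second-highest inhibition in the matrix, and Bliss excess as the observed combination effect less EA + EB − EA·EB, with EA and EB the single-agent effects.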

[1] = tested on: LB771-HNC (Head and Neck Carcinoma)
Outline: as §1

[2] = tested on: RPMI-6666 (Non-Cancerous)
Outline: as §1

SH-4 (Melanoma) = tested on: SH-4 (Melanoma)
Outline: as §1

[3] = tested on: OVCAR-8 (Ovarian Carcinoma)
Outline: as §1

Mewo (Melanoma) = tested on: Mewo (Melanoma)
Outline: as §1

HMV-II (Melanoma) = tested on: HMV-II (Melanoma)
Outline: as §1

[4] = tested on: HCC-15 (Squamous Cell Lung Carcinoma)
Outline: as §1

NCI-H28 (Mesothelioma) = tested on: NCI-H28 (Mesothelioma)
Outline: as §1

[5] = tested on: HO-1-u-1 (Oral Cavity Carcinoma)
Outline: as §1

[6] = tested on: CAL-54 (Kidney Carcinoma)
Outline: as §1

[7] = tested on: PCI-30 (Head and Neck Carcinoma)
Outline: as §1

[8] = tested on: SU-DHL-6 (B-Cell Non-Hodgkin's Lymphoma)
Outline: as §1

[9] = tested on: SK-OV-3 (Ovarian Carcinoma)
Outline: as §1

[10] = tested on: LoVo (Colorectal Carcinoma)
Outline: as §1

[11] = tested on: KARPAS-231 (B-Cell Non-Hodgkin's Lymphoma)
Outline: as §1

[12] = tested on: SW1116 (Colorectal Carcinoma)
Outline: as §1

[13] = tested on: CAL-51 (Breast Carcinoma)
Outline: as §1

[14] = tested on: UMC-11 (Other Solid Carcinomas)
Outline: as §1

[15] = tested on: EN (Endometrial Carcinoma)
Outline: as §1

| Compound | Bliss excess (NCI-H2461 (Mesothelioma)) | Bliss excess [1] | Bliss excess [2] | Bliss excess (SH-4 (Melanoma)) | Bliss excess [3] | Bliss excess (Mewo (Melanoma)) | Bliss excess (HMV-II (Melanoma)) | Bliss excess [4] | Bliss excess (NCI-H28 (Mesothelioma)) | Bliss excess [5] | Bliss excess [6] | Bliss excess [7] | Bliss excess [8] | Bliss excess [9] | Bliss excess [10] | Bliss excess [11] | Bliss excess [12] | Bliss excess [13] | Bliss excess [14] | Bliss excess [15] |
| --- | --- | --- | --- | --- | --- | --- | --- | --- | --- | --- | --- | --- | --- | --- | --- | --- | --- | --- | --- | --- |
| Cc1c2c(nn1C)CSCc1cc(n(C)n1)CSc1cc(c3ccccc3c1)OCCCc1c(C(=O)O)n(C)c3c-2c(Cl)ccc13 [AZD5991] + Cn1cnc2c(F)c(Nc3ccc(Br)cc3Cl)c(C(=O)NOCCO)cc21 [Selumetinib] (first compound max 1 µM, 7x7, partner max 3 µM) | -0.0131 | -0.0118 | 0.0387 | 0.0465 | 0.0416 | -0.0417 | 0.0066 | 0.0217 | -0.026 | 0.0168 | 0.0203 | -0.0352 | 0.0071 | -0.0597 | 0.0074 | -0.0645 | -0.032 | 0.0634 | 0.0198 | -0.0494 |
| CC1(C)CCC(CN2CCN(c3ccc(C(=O)NS(=O)(=O)c4ccc(NCC5CCOCC5)c([N+](=O)[O-])c4)c(Oc4cnc5[nH]ccc5c4)c3)CC2)=C(c2ccc(Cl)cc2)C1 [Venetoclax] + CN(C)CCCOc1ccc(-c2ccc3ncc4c(c3c2)n(C2CCOCC2)c(=O)n4C)cn1 [AZD0156] (first compound max 1 µM, 7x7, partner max 1 µM) | -0.0535 | -0.0215 | -0.0231 | -0.0087 | -0.0089 | -0.0483 | 0.0134 | -0.0196 | -0.0547 | -0.003 | -0.0085 | -0.0665 | 0.036 | -0.0637 | -0.0251 | -0.0599 | -0.0409 | 0.0064 | -0.0004 | -0.0832 |
| COc1nnc2ccc(N3CCC(c4ccc(OCCN5CCN(C)C(=O)[C@H]5C)cc4)CC3)nn12 [AZD5153] + Cn1cnc2c(F)c(Nc3ccc(Br)cc3Cl)c(C(=O)NOCCO)cc21 [Selumetinib] (first compound max 1 µM, 7x7, partner max 10 µM) | -0.0415 | -0.0895 | -0.0462 | 0.0222 | 0.0159 | 0.0325 | 0.0275 | 0.0567 | -0.0199 | 0.0747 | -0.0165 | -0.0426 | -0.0278 | -0.0545 | 0.065 | -0.0464 | 0.0036 | 0.0099 | -0.031 | 0.023 |
| C[C@@H]1COCCN1c1cc(C2([S@](C)(=N)=O)CC2)nc(-c2ccnc3[nH]ccc23)n1 [AZD6738] + O=C(c1cc(Cc2n[nH]c(=O)c3ccccc23)ccc1F)N1CCN(C(=O)C2CC2)CC1 [Olaparib] (first compound max 10 µM, 7x7, partner max 10 µM) | -0.0214 | 0.0337 | -0.0839 | 0.0189 | 0.0495 | -0.0368 | -0.0296 | 0.0025 | 0.011 | 0.0528 | 0.045 | -0.052 | -0.0124 | -0.0222 | -0.0084 | -0.0708 | -0.0228 | 0.0407 | 0.0266 | -0.0479 |
| CC1(C)CCC(CN2CCN(c3ccc(C(=O)NS(=O)(=O)c4ccc(NCC5CCOCC5)c([N+](=O)[O-])c4)c(Oc4cnc5[nH]ccc5c4)c3)CC2)=C(c2ccc(Cl)cc2)C1 [Venetoclax] + C[C@@H]1COCCN1C2=NC(=NC(=C2)C3(CC3)[S@](=N)(=O)C)C4=C5C=CNC5=NC=C4 [AZD6738] (first compound max 1 µM, 7x7, partner max 10 µM) | -0.026 | -0.014 | 0.0224 | -0.022 | -0.0444 | -0.0285 | -0.0853 | -0.0296 | -0.059 | 0.0026 | -0.0737 | -0.0076 | 0.0561 | -0.012 | -0.0637 | -0.18 | -0.0234 | 0.005 | -0.0331 | -0.0605 |
| Cc1c2c(nn1C)CSCc1cc(n(C)n1)CSc1cc(c3ccccc3c1)OCCCc1c(C(=O)O)n(C)c3c-2c(Cl)ccc13 [AZD5991] + CN(C)CCCOc1ccc(-c2ccc3ncc4c(c3c2)n(C2CCOCC2)c(=O)n4C)cn1 [AZD0156] (first compound max 1 µM, 7x7, partner max 1 µM) | 0.0373 | 0.0096 | -0.0605 | 0.0088 | 0.0408 | -0.019 | -0.033 | 0.0213 | -0.0024 | 0.04 | -0.0036 | 0.0079 | -0.0154 | 0.0106 | -0.0005 | 0.041 | -0.0032 | 0.0198 | 0.0551 | -0.024 |
| CC1(C)CCC(CN2CCN(c3ccc(C(=O)NS(=O)(=O)c4ccc(NCC5CCOCC5)c([N+](=O)[O-])c4)c(Oc4cnc5[nH]ccc5c4)c3)CC2)=C(c2ccc(Cl)cc2)C1 [Venetoclax] + COc1cc(Nc2ncc3c(n2)-c2ccc(Cl)cc2C(c2c(F)cccc2OC)=NC3)ccc1C(=O)O [Alisertib] (first compound max 1 µM, 7x7, partner max 10 µM) | -0.0208 | -0.0185 | 0.0702 | -0.0234 | 0.0079 | -0.0163 | -0.0414 | -0.0104 | -0.0704 | 0.0246 | -0.0251 | -0.0352 | 0.121 | -0.076 | -0.0799 | 0.0566 | 0.0127 | 0.0319 | 0.192 | -0.0554 |
| CC1(C)CCC(CN2CCN(c3ccc(C(=O)NS(=O)(=O)c4ccc(NCC5CCOCC5)c([N+](=O)[O-])c4)c(Oc4cnc5[nH]ccc5c4)c3)CC2)=C(c2ccc(Cl)cc2)C1 [Venetoclax] + Cc1cc2ncnn2cc1Nc1ncc2c(n1)n(C1CCOCC1)c(=O)n2C [AZD7648] (first compound max 1 µM, 7x7, partner max 10 µM) | -0.0954 | -0.006 | -0.0477 | -0.0039 | -0.0014 | -0.0181 | -0.0407 | -0.0033 | -0.0166 | -0.0307 | -0.0295 | -0.0545 | 0.049 | -0.134 | -0.0526 | -0.124 | -0.0232 | -0.0323 | -0.0465 | -0.0233 |
